Measured values taken from patent US6083951A, “Aryl-substituted pyrimidine sulphonamide compounds as endothelin antagonists” (Zeneca Limited, priority 1994, dated 2000).

Columns and labels:
[1] = system: Human ETA or ETB receptors; test: Test A: inhibition of [125I]-Endothelin-1 binding to MEL cell membranes expressing recombinant receptor; details: [125I]-Endothelin-1 30 pM, receptor subtype (ETA or ETB) not stated
Description: The endothelin receptor antagonist activity of compounds of formula I may be assessed in vitro by their ability to inhibit binding of [^125 I]-Endothelin-1 to its receptors. Human ETA or ETB receptors (sub-types of the endothelin receptor) were expressed in Mouse Erythroleukemic Cells (MEL cells) by using standard molecular techniques (for example, as described by Sambrook J., Fritsch E. F. & Maniatis T. (1989) Molecular Cloning: A Laboratory Manual, 2nd Edition, Cold Spring Harbor Press, U.S.A.). cDNA sequences encoding the human ETA and ETB receptor (Hosoda K. et al (1991), FEBS Lett., 287, 23-26 and Sakamoto A. et al, (1991), Biochem. Biophys Res. Comm., 178, 656-663) are subcloned into pBluescript vector followed by insertion into the MEL cell expression vector pEV as described by Needham et al (1992), Nuc. Acids Res., 20, 997-1003. […]
[^125 I]-Endothelin-1 binding to MEL cell membranes was measured in incubation buffer containing 50 mM Tris HCl, 1 mM CaCl2, 0.05% polyoxyethylenesorbitan monolaurate, 0.1% Bovine Serum Albumin (BSA), 0.02% sodium azide pH 7.4 at 30° C. after 180 minutes incubation. […] Nonspecific binding was measured in the presence of 100 nM unlabelled Endothelin-1. […] The filter discs were punched out and counted in a gamma counter. Compounds are tested in triplicate over a range of concentrations and IC50 (or pIC50) values calculated.

[2] = system: guinea-pig isolated taenia coli; test: Test B: inhibition of the relaxant response to endothelin-1 in isolated tissue; format: cell-based; details: antagonism of endothelin-1 relaxation, pA2 from concentration ratio
Procedure: The endothelin receptor antagonist activity of compounds of formula I may be assessed in vitro in isolated tissues by their ability to inhibit the relaxant response to endothelin-1 in the guinea-pig isolated taenia coli. Guinea pigs of either sex and weight >250 g are killed by cervical dislocation and the caecum removed and placed in cold oxygenated Krebs solution. Strips of Taenia coli are dissected out and approximately 4 cm lengths set up for isotonic recording in a 20 ml organ bath containing oxygenated Krebs solution at 32° C. After a 90-120 minute equilibration period to allow the tissue to spontaneously develop an increased tone, a cumulative concentration-response curve (relaxation) is constructed to endothelin-1 (0.3-10 nM). The tissue is then washed for a period of at least 90 minutes before construction of a second concentration-response curve to endothelin-1 in the presence of the test compound. The test compound is added to the organ bath (at an initial concentration of 20 μM) at least 30 minutes before constructing the second concentration-response curve to endothelin-1. The endothelin-1 concentration ratio for each experiment is determined by comparing the most parallel portions of the control and drug treated concentration-response curves. From this a pA2 is calculated: pA2 =-log[molar drug concentration]+log[concentration ratio-1].

pIC50 in test A [1]: 6.7
SMILES: CN(C)c1cccc2c(S(=O)(=O)Nc3ccc(Cl)nn3)cccc12 [Example 1, 5-(dimethylamino)-N-(6-chloro-3-pyridazinyl)-1-naphthalenesulphonamide]
pA2 in test B [2]: 6.8
